pIC50: −log10 of the molar value.
System: K98450-129-R-PDC complex spheroid growth, percent test/control
Test: Anticancer human tumor K98450-129-R-PDC patient-derived colon adenocarcinoma cell line growth inhibition [RAS]
Details: for pIC50: curve of first compound; for viability, T/C: stronger effect = lower value
Summary of the method: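 Tumour cells grown as complex spheroids with HUVEC endothelial cells and mesenchymal stem cells, treated with RAS pathway inhibitor combinations. Each agent spans half-log steps from near clinical Cmax, or 10 microM where Cmax is unknown.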

[1] = second compound 0.00316 µM, first compound 0.0316 µM
[2] = second compound 0.00316 µM, first compound 0.1 µM
[3] = second compound 0.00316 µM, first compound 0.316 µM
[4] = second compound 0.00316 µM, first compound 1 µM
[5] = second compound 0.01 µM, first compound 0.0316 µM
[6] = second compound 0.01 µM, first compound 0.1 µM
[7] = second compound 0.01 µM, first compound 0.316 µM
[8] = second compound 0.01 µM, first compound 1 µM
[9] = second compound 0.0316 µM, first compound 0.0316 µM
[10] = second compound 0.0316 µM, first compound 0.1 µM
[11] = second compound 0.0316 µM, first compound 0.316 µM
[12] = second compound 0.0316 µM, first compound 1 µM
[13] = second compound 0.1 µM, first compound 0.0316 µM
[14] = second compound 0.1 µM, first compound 0.1 µM
[15] = second compound 0.1 µM, first compound 0.316 µM
[16] = second compound 0.1 µM, first compound 1 µM
[17] = second compound 0.316 µM, first compound 0.0316 µM
[18] = second compound 0.316 µM, first compound 0.1 µM
[19] = second compound 0.316 µM, first compound 0.316 µM
[20] = second compound 0.316 µM, first compound 1 µM
[21] = second compound 1 µM, first compound 0.0316 µM
[22] = second compound 1 µM, first compound 0.1 µM
[23] = second compound 1 µM, first compound 0.316 µM
[24] = second compound 1 µM, first compound 1 µM
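Note: spheroids exposed to agents for seven days before the viability readout.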
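Throughout, for viability, T/C: luminescence used as a proxy for viable cell amount.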

Question: Which results are given for CCC(CC)c1cc(NC2CCC(N)C2)n2nccc2n1 (centres undefined) + C=CC(=O)N1CCN(c2nc(OCC3CCCN3C)nc3c(F)c(-c4nc(N)cc(C)c4C(F)(F)F)c(Cl)cc23)C(C)C1?
Answer: pIC50 (second compound 0.00316 µM): 5.29; pIC50 (second compound 0.01 µM): 5.34; pIC50 (second compound 0.0316 µM): 5.56; pIC50 (second compound 0.1 µM): 5.93; pIC50 (second compound 0.316 µM): > 7.50; pIC50 (second compound 1 µM): > 7.50; viability, T/C [1]: 97.6%; viability, T/C [2]: 93.8%; viability, T/C [3]: 91.5%; viability, T/C [4]: 87.3%; viability, T/C (second compound 0.00316 µM, first compound 3.16 µM): 78.2%; viability, T/C (second compound 0.00316 µM, first compound 10 µM): 13.5%; viability, T/C [5]: 88.2%; viability, T/C [6]: 86.8%; viability, T/C [7]: 84.6%; viability, T/C [8]: 85.8%; viability, T/C (second compound 0.01 µM, first compound 3.16 µM): 66.2%; viability, T/C (second compound 0.01 µM, first compound 10 µM): 15.1%; viability, T/C [9]: 78.6%; viability, T/C [10]: 73.3%; viability, T/C [11]: 73.1%; viability, T/C [12]: 60.4%; viability, T/C (second compound 0.0316 µM, first compound 3.16 µM): 51.3%; viability, T/C (second compound 0.0316 µM, first compound 10 µM): 8.93%; viability, T/C [13]: 48.2%; viability, T/C [14]: 55.4%; viability, T/C [15]: 51.9%; viability, T/C [16]: 54.3%; viability, T/C (second compound 0.1 µM, first compound 3.16 µM): 34.1%; viability, T/C (second compound 0.1 µM, first compound 10 µM): 8.77%; viability, T/C [17]: 38.4%; viability, T/C [18]: 38.9%; viability, T/C [19]: 41%; viability, T/C [20]: 37.3%; viability, T/C (second compound 0.316 µM, first compound 3.16 µM): 16.4%; viability, T/C (second compound 0.316 µM, first compound 10 µM): 7.47%; viability, T/C [21]: 32%; viability, T/C [22]: 31.9%; viability, T/C [23]: 33.3%; viability, T/C [24]: 25.3%; viability, T/C (second compound 1 µM, first compound 3.16 µM): 11.1%; viability, T/C (second compound 1 µM, first compound 10 µM): 8.2%

Question: How did the pIC50 (second compound 0.00316 µM) turn out when CCN1CCN(Cc2ccc(Nc3ncc(F)c(-c4cc(F)c5nc(C)n(C(C)C)c5c4)n3)nc2)CC1 + C=CC(=O)N1CCN(c2nc(OCC3CCCN3C)nc3c(F)c(-c4nc(N)cc(C)c4C(F)(F)F)c(Cl)cc23)C(C)C1 was run?
Answer: The pIC50 was 6.29.

Question: What about the pIC50 (second compound 0.01 µM) of the same compound?
Answer: Its pIC50 is 6.75.

Question: What about the pIC50 (second compound 0.0316 µM) of the same compound?
Answer: Its pIC50 is 7.18.

Question: What about the pIC50 (second compound 0.1 µM) of the same compound?
Answer: Its pIC50 is 7.69.

Question: And the pIC50 (second compound 0.316 µM)?
Answer: The pIC50 was over 8.50.

Question: And the pIC50 (second compound 1 µM)?
Answer: Its pIC50 is over 8.50.

Question: And the viability, T/C (second compound 0.00316 µM, first compound 0.00316 µM)?
Answer: The viability, T/C was 95%.

Question: And the viability, T/C (second compound 0.00316 µM, first compound 0.01 µM)?
Answer: The viability, T/C was 97.3%.

Question: And the viability, T/C [1]?
Answer: The viability, T/C was 81.8%.

Question: And the viability, T/C [2]?
Answer: Its viability, T/C is 75.2%.

Question: What about the viability, T/C [3] of the same compound?
Answer: The viability, T/C was 48.7%.

Question: What about the viability, T/C [4] of the same compound?
Answer: The viability, T/C was 47.8%.

Question: And the viability, T/C (second compound 0.01 µM, first compound 0.00316 µM)?
Answer: The viability, T/C was 90.8%.

Question: And the viability, T/C (second compound 0.01 µM, first compound 0.01 µM)?
Answer: The viability, T/C was 86.8%.

Question: What about the viability, T/C [5] of the same compound?
Answer: Its viability, T/C is 73.7%.

Question: What about the viability, T/C [6] of the same compound?
Answer: The viability, T/C was 57.8%.

Question: And the viability, T/C [7]?
Answer: The viability, T/C was 42.3%.

Question: What about the viability, T/C [8] of the same compound?
Answer: Its viability, T/C is 36.2%.

Question: And the viability, T/C (second compound 0.0316 µM, first compound 0.00316 µM)?
Answer: The viability, T/C was 73.3%.

Question: What about the viability, T/C (second compound 0.0316 µM, first compound 0.01 µM) of the same compound?
Answer: The viability, T/C was 68.3%.

Question: And the viability, T/C [9]?
Answer: The viability, T/C was 62.5%.

Question: And the viability, T/C [10]?
Answer: Its viability, T/C is 43.2%.

Question: And the viability, T/C [11]?
Answer: Its viability, T/C is 32.4%.

Question: What about the viability, T/C [12] of the same compound?
Answer: Its viability, T/C is 31.9%.

Question: What about the viability, T/C (second compound 0.1 µM, first compound 0.00316 µM) of the same compound?
Answer: Its viability, T/C is 60.2%.

Question: And the viability, T/C (second compound 0.1 µM, first compound 0.01 µM)?
Answer: The viability, T/C was 55.1%.

Question: And the viability, T/C [13]?
Answer: Its viability, T/C is 46.6%.

Question: What about the viability, T/C [14] of the same compound?
Answer: Its viability, T/C is 36.6%.

Question: And the viability, T/C [15]?
Answer: Its viability, T/C is 27%.

Question: And the viability, T/C [16]?
Answer: Its viability, T/C is 29.2%.

Question: And the viability, T/C (second compound 0.316 µM, first compound 0.00316 µM)?
Answer: Its viability, T/C is 44.4%.

Question: And the viability, T/C (second compound 0.316 µM, first compound 0.01 µM)?
Answer: Its viability, T/C is 41.2%.

Question: What about the viability, T/C [17] of the same compound?
Answer: Its viability, T/C is 33.1%.

Question: And the viability, T/C [18]?
Answer: The viability, T/C was 27.9%.

Question: What about the viability, T/C [19] of the same compound?
Answer: The viability, T/C was 24.2%.

Question: And the viability, T/C [20]?
Answer: Its viability, T/C is 28.4%.

Question: And the viability, T/C (second compound 1 µM, first compound 0.00316 µM)?
Answer: Its viability, T/C is 31.8%.

Question: And the viability, T/C (second compound 1 µM, first compound 0.01 µM)?
Answer: The viability, T/C was 32.1%.

Question: And the viability, T/C [21]?
Answer: The viability, T/C was 28.7%.

Question: And the viability, T/C [22]?
Answer: Its viability, T/C is 24.3%.

Question: And the viability, T/C [23]?
Answer: The viability, T/C was 24.6%.

Question: What about the viability, T/C [24] of the same compound?
Answer: The viability, T/C was 29.2%.

Source: PubChem BioAssay AID2060891 (Molecular Pharmacology Branch, DTP, NCI, 2025)
